The source made the active and inactive calls.
What was measured:
[1] = target: T1, Corticotropin-releasing factor receptor 2/Corticotropin-releasing factor-binding protein (Homo sapiens, UniProt P24387+Q13324); assay: Dose Response confirmation of uHTS hits for small molecule antagonists of the CRF-binding protein and CRF-R2 receptor complex.; type: functional; settings: read-out: IC50_Mean
T1 sequence (Q13324 whole entry): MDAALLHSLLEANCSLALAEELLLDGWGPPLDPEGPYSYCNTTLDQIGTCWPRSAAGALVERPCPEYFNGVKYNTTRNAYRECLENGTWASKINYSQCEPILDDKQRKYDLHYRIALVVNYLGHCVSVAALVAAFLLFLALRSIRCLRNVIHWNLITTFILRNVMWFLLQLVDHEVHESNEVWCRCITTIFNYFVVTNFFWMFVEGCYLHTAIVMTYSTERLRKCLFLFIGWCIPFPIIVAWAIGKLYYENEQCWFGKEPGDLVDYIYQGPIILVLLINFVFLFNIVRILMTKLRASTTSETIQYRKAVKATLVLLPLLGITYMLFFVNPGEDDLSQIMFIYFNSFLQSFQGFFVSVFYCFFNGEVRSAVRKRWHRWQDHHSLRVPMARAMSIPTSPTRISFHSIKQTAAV
T1 sequence (P24387 whole entry): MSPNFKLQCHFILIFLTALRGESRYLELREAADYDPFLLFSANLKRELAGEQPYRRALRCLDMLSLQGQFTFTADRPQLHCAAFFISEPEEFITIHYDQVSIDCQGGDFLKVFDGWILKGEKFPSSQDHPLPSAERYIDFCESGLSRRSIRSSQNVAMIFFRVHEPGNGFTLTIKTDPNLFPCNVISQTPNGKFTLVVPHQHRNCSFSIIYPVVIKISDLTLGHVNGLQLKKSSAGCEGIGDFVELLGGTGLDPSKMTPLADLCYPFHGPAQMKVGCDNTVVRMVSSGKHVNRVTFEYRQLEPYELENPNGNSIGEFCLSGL

[2] = CRF-BP/CRF-R2 complex antagonists, dose response, cell-based, uHTS hits, 384-well (AID 651639); type: functional, Homo sapiens; settings: read-out: IC50_Mean
[3] = target: T1, Corticotropin-releasing factor receptor 2/Corticotropin-releasing factor-binding protein; assay: activators of CRF receptor 2 with binding protein – uHTS hits, confirmation (AID 602473); type: functional; settings: read-out: EC50_Mean
[4] = target: T2, Probable nicotinate-nucleotide adenylyltransferase (Staphylococcus aureus (strain N315), UniProt P65502); type: functional, Staphylococcus aureus subsp. aureus N315;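 on IC50 Mean: confirmatory dose-response retesting of NadD inhibitor hits first found in an ultra-high-throughput screen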
[5] = target: T2, Probable nicotinate-nucleotide adenylyltransferase; type: functional, Staphylococcus aureus subsp. aureus N315; settings: read-out: IC50_Mean
[6] = target: T3, Methionyl-tRNA synthetase, putative (Trypanosoma brucei brucei, UniProt Q38C91); type: functional, Trypanosoma brucei brucei strain 927/4 GUTat10.1
T3 sequence (Q38C91 whole entry): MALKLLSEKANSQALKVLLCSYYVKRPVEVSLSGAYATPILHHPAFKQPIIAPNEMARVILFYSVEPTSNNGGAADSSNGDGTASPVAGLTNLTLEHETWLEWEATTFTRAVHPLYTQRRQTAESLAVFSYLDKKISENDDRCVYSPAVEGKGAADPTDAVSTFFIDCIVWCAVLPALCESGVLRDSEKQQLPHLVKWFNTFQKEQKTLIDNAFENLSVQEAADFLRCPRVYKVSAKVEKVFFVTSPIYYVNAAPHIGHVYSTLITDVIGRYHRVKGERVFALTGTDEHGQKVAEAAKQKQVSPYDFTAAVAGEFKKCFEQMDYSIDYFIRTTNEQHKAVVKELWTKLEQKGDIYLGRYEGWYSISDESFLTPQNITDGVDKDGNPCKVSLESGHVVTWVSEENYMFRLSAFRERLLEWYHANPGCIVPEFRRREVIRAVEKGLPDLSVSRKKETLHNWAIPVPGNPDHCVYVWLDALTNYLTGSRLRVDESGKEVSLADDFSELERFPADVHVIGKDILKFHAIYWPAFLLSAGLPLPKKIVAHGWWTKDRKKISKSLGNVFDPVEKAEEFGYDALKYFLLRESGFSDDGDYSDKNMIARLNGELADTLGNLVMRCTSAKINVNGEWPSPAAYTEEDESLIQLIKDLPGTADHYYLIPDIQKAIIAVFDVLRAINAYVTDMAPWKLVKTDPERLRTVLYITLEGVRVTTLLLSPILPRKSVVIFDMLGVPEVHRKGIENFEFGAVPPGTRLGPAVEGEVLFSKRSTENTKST

[7] = target: T3, Methionyl-tRNA synthetase, putative; type: functional, Trypanosoma brucei brucei strain 927/4 GUTat10.1; remark: listed apart in the source
[8] = Counterscreen for inhibitors of Trypanosoma brucei methionyl tRNA synthetase (MetRS): Luminescence-based cell-based high throughput dose response assay to identify compounds that are cytotoxic to Jurkat human T lymphocyte cells.; type: functional
[9] = target: T4, Heat shock factor protein 1 (Mus musculus, UniProt P38532); assay: HSF1 potentiators in luciferase reporter cells, confirmation, cell-based, NIH3T3, luminescence, dose retest (AID 435004); type: functional;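 further: stress induced by proteasome inhibitor MG132 added 30 min after compound; luciferase reporter driven by HSF1 response element in NIH3T3 cells; actives raise luminescence as potentiators of the MG132 stress response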
T4 sequence (P38532 whole entry): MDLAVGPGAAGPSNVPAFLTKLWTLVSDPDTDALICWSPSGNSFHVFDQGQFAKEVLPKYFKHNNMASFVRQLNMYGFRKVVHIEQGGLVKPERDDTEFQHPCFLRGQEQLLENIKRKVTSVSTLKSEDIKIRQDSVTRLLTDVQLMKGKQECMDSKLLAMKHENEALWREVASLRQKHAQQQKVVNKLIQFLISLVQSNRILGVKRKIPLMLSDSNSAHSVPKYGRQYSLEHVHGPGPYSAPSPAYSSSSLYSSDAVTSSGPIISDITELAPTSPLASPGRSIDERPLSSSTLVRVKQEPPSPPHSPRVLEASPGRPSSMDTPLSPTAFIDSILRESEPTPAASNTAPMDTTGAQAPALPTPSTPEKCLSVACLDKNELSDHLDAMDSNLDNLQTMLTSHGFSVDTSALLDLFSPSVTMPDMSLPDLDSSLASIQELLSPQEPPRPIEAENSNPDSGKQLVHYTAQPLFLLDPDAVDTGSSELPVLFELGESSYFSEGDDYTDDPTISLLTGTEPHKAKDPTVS

[10] = target: T5, DNA repair protein RAD52 homolog (Homo sapiens, UniProt P43351); type: functional, biochemical
T5 sequence (P43351 whole entry): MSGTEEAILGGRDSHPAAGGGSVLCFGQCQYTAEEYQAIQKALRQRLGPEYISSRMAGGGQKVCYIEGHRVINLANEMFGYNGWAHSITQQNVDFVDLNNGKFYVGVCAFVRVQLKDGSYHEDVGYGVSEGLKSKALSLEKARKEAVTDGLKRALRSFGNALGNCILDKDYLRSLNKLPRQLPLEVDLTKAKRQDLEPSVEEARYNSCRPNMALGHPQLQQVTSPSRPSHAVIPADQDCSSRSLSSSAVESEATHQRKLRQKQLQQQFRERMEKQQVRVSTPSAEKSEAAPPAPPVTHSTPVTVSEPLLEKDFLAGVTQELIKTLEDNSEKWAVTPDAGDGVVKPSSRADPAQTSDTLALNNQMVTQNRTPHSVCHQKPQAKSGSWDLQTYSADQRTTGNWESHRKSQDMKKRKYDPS

[11] = target: T6, Short transient receptor potential channel 4 (Mus musculus, UniProt Q9QUQ5); assay: mouse TRPC4 channel inhibitors, dose response, cell-based, HEK293 TRPC4/mu-opioid, Fluo-4 calcium (AID 434942); type: functional;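 further: potency of inhibitors blocking the TRPC4 calcium response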
T6 sequence (Q9QUQ5 whole entry): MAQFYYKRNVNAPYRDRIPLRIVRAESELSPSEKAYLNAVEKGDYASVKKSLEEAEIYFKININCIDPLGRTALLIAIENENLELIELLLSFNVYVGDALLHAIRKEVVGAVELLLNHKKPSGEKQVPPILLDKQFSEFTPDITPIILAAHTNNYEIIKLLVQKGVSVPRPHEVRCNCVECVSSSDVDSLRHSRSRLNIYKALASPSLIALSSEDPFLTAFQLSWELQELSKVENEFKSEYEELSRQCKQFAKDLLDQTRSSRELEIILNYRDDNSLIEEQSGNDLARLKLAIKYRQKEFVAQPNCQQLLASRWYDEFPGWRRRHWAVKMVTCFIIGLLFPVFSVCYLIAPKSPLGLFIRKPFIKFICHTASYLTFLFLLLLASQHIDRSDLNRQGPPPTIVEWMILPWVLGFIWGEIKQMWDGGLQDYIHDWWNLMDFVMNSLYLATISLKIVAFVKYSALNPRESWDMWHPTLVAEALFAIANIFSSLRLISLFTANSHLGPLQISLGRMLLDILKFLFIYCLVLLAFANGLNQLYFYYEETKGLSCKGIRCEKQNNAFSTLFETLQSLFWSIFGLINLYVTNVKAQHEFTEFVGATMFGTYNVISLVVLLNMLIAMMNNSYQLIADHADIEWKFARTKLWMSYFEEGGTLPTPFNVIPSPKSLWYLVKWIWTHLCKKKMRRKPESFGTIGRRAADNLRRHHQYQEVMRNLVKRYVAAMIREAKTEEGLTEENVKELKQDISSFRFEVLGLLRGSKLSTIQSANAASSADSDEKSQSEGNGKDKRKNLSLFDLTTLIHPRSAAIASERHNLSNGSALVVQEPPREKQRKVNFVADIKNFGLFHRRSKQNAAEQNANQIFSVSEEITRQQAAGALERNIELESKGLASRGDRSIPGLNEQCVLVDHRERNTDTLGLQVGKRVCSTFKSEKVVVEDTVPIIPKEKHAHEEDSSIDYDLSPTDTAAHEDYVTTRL

[12] = target: 72 kDa type IV collagenase (Homo sapiens, UniProt P08253); assay: Dose Response validation of uHTS RPN11 inhibitor hits using a MMP-2 Fluorescence assay.; type: functional
Prothrombin = Prothrombin (Bos taurus, UniProt P00735); assay: thrombin inhibition, dose response, biochemical, fluorescence polarization, uHTS hits (AID 602369); type: functional
Vero = assay: cells; type: functional; settings: Chlorocebus sabaeus
[13] = target: 26S proteasome non-ATPase regulatory subunit 14 (Homo sapiens, UniProt O00487); assay: inhibition of proteasome subunit RPN11 – biochemical, fluorescence polarization, uHTS hits, confirmation (AID 602368); type: functional
Cysteine protease ATG4B = target: T7, Cysteine protease ATG4B (Homo sapiens, UniProt Q9Y4P1); type: functional;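 further: Fluorescence-based dose-response confirmation assay measuring inhibition of ATG4B activity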
T7 sequence (Q9Y4P1 whole entry): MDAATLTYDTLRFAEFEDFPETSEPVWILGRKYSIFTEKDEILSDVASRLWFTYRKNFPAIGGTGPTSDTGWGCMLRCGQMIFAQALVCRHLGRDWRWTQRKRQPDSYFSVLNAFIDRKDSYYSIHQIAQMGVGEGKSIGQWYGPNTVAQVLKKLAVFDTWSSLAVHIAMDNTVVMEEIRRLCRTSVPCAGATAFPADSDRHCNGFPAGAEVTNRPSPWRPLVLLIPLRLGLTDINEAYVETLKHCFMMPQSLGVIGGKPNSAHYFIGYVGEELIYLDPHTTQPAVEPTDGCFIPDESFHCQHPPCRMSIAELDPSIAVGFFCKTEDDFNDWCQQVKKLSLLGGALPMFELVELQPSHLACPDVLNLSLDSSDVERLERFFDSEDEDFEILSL

Phospholipase A2 = Phospholipase A2 (Homo sapiens, UniProt P04054); type: functional;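 further: confirmatory dose-response counterscreen on phospholipase A2, testing hits that came from an ultra-high-throughput screen for ATG4B inhibitors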
Chain of Phospholipase A2 (P04054 whole entry): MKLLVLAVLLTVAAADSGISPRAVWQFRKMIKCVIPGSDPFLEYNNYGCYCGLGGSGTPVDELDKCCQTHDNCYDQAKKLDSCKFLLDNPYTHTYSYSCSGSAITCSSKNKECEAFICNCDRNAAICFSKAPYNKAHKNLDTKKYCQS

T2 sequence (P65502 whole entry): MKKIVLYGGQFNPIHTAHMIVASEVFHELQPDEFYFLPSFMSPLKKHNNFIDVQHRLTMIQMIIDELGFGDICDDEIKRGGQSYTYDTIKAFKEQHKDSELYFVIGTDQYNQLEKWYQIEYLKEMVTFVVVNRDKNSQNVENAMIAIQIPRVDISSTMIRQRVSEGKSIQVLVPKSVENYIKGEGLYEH
Chain of 72 kDa type IV collagenase (P08253 whole entry): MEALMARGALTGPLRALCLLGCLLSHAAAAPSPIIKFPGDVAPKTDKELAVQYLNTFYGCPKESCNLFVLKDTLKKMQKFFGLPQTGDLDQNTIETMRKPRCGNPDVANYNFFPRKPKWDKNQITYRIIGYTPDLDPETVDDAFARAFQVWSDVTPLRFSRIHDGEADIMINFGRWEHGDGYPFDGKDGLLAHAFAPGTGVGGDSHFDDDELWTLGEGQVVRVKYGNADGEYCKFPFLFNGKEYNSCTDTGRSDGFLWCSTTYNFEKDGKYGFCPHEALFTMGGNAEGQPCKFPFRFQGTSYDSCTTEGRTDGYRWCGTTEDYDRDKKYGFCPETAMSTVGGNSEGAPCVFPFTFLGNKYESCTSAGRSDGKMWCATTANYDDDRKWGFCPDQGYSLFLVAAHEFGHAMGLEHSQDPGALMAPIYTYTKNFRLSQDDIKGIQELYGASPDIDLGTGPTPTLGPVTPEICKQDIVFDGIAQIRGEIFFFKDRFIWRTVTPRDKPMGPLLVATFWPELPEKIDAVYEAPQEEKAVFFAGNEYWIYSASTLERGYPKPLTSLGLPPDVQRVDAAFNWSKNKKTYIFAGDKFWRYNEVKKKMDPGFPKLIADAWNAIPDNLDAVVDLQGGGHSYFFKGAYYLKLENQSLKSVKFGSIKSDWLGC
Chain of 26S proteasome non-ATPase regulatory subunit 14 (O00487 whole entry): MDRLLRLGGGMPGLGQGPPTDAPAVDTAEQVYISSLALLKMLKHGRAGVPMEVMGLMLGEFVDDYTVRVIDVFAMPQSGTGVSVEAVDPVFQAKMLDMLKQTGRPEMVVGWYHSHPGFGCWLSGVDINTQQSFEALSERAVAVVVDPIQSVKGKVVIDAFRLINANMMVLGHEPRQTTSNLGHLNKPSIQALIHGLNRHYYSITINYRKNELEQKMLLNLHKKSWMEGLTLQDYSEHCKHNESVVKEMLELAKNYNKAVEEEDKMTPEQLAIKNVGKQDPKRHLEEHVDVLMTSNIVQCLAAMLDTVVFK

Structure (SMILES) | IC50 [1] | IC50 [2] | EC50 [3] | IC50 [6] | IC50 [7] | IC50 [8] | other results
CCOc1ccc(S(=O)(=O)n2ccc(C)n2)c2ccccc12 | < 0.368 µM (active) | 11.7 µM (active) | 21.2 µM (active) | – | – | – | –
Cc1ccc(-n2nc3c(c2NC(=O)/C=C\c2ccc4c(c2)OCO4)CSC3)c(C)c1 | – | – | – | – | – | – | IC50 [4]: 5.88 µM (active); IC50 [5]: 21.5 µM (active)
CCOC(=O)c1sc(NC(=O)Nc2ccccc2)cc1C | – | – | – | 43.9 µM (inactive) | 4.39 µM (active) | 45 µM (inactive) | EC50 [9]: > 260 µM (inconclusive)
CCc1ccc2nc(NC(=N)N)nc(C)c2c1 | – | – | – | – | – | – | AC50 [10]: 16.8 µM (active); EC50 [11]: 15 µM (active)
N#Cc1ccsc1NC(=O)c1cccc([N+](=O)[O-])c1 | 3.12 µM (active) | > 20 µM (inactive) | 4.08 µM (active) | – | – | – | –
Cc1ccc(S(=O)(=O)N2CCCCC2)cc1C(=O)N(CCc1ccccc1)Cc1ccccc1 | 1.19 µM (active) | 19.3 µM (active) | > 53 µM (inactive) | – | – | – | –
CCCCCCCCCCCCCCC(O)C[N+](C)(CCO)CCO (configuration not stated) | – | – | – | – | – | – | IC50 [12]: 85 µM (active); IC50 (Prothrombin): 50 µM (active); CC50 (Vero): 13.1 µM (active); AC50 [10]: 8.88 µM (active); IC50 [13]: 25.3 µM (active); IC50 (Cysteine protease ATG4B): 8.23 µM (active); IC50 (Phospholipase A2): 7.95 µM (active)
CCOc1ccccc1NS(=O)(=O)c1c(C)[nH]c(C)c1C(=O)N1CCCCC1 | – | – | – | 11.2 µM (inactive) | 26.1 µM (inactive) | 83.3 µM (inactive) | –
O=C(NCc1cc(Cl)cc(Cl)c1)c1csc(COCCO)n1 | – | – | – | 5.4 µM (active) | 12.2 µM (inactive) | 83.3 µM (inactive) | –
Nc1ccccc1C(=O)NNC(=O)/C(O)=C/C(=O)c1ccccc1 | – | – | – | – | – | – | IC50 [4]: 4.63 µM (active); IC50 [5]: 12 µM (active)
